Results as given in ChEMBL document CHEMBL4823312, “Virtual screening and biological evaluation of PPARγ antagonists as potential anti-prostate cancer agents” (Bioorg Med Chem, 2021).

The compounds below were run against T1, Peroxisome proliferator-activated receptor gamma (Homo sapiens, UniProt P37231) (assay: Antagonist activity at PPARgamma (unknown origin) expressed in human LNCaP cells assessed as suppression of pioglitazone-induced PPAR response element driven firefly luciferase activity measured after 24 hrs by dual luciferase reporter assay).
T1 sequence (P37231 whole entry): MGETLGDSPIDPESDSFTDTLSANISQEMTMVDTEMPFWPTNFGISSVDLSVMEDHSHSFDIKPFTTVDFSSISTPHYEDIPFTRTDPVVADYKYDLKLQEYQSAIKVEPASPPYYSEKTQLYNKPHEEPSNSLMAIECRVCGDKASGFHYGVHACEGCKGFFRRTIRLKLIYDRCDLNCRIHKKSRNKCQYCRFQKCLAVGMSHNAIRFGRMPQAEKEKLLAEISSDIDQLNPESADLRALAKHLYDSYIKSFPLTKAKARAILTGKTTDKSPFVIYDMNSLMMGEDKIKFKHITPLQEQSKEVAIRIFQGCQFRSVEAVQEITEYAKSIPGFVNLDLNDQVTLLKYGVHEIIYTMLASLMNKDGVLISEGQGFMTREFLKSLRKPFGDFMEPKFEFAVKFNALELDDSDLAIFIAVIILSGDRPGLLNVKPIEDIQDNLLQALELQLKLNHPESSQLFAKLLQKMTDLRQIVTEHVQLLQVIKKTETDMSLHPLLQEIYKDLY
Assay type: cell-based

Row | Structure (SMILES) | IC50
1 | O=C(O)c1ccccc1-c1ccccc1C(=O)Nc1ccc2c(c1)-c1ccccc1C2 | 3500 nM
2 | O=C1C=C(Nc2ccccc2C(=O)CC(=O)C(=O)Nc2ccc(Cl)c(Cl)c2)c2ccccc2C1=O | 2800 nM
3 | CCN(CC)c1ccc(CN(CC(=O)c2ccc(Cl)c(Cl)c2)Cc2ccccc2)cc1 | 4500 nM
4 | O=C(OCc1cccc2ccc3cccc(COC(=O)c4ccccc4)c3c12)c1ccccc1 | 5400 nM
5 | COc1ccc(NC(=O)CC[C@H](NS(=O)(=O)c2ccc(C)cc2)C(=O)O)cc1 | 275000 nM
6 | COc1c(OC)c(O)c2c(=O)cc(-c3ccc(O)cc3)oc2c1OC [XANTHOMICROL] | 5400 nM

Now those with a lower IC50, led by results:

Row | IC50 | Structure (SMILES)
7 | 2600 nM | CC(=O)c1cc(C(C)=O)c(CC(=O)C(=O)Nc2cccc(C)c2C)cc1CC(=O)C(=O)Nc1cccc(C)c1C
8 | 2400 nM | O=C(CCCOc1ccc(Cl)cc1Cl)N[C@@H](Cc1c[nH]c2ccccc12)C(=O)O
9 | 2300 nM | COc1ccc(O)c(/C=N/c2ccccc2NS(=O)(=O)c2ccc(C)cc2)c1
10 | 2300 nM | CC(/C=N/Nc1ccc(S(=O)(=O)/N=C/C(C)=C/c2ccccc2)cc1)=C\c1ccccc1
11 | 2100 nM | O=C(CCCC(=O)N/N=C/c1cccc2ccccc12)N/N=C/c1ccc2ccccc2c1
12 | 1700 nM | O=C(Nc1ccccc1C(=O)N/N=C/c1c(O)ccc2ccccc12)c1ccccc1Cl
13 | 1600 nM | O=C(CNC(=O)Nc1ccc(NC(=O)NCC(=O)Nc2ccc(C3=NCCN3)cc2)cc1)Nc1ccc(C2=NCCN2)cc1
14 | 1500 nM | O=S(=O)(NCCSSCCNS(=O)(=O)c1cccc2cccnc12)c1cccc2cccnc12
15 | 1100 nM | COc1cc(OC)c2c(=O)cc(-c3cccnc3)oc2c1
